According to PubChem BioAssay (NCI):
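Cells were grown in 96-well plates and exposed to each compound for 48 hours at five concentrations; endpoints were interpolated linearly between bracketing concentrations, or set to the highest concentration if not reached. GI50 marks 50% less growth. The concentration for full growth arrest is given as TGI.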

Key:
Test in all cases: DTP human tumour cell line panel, 48 h
[1] = test system: 786-0 renal
[2] = test system: A498 renal
[3] = test system: A549 NSCLC
[4] = test system: ACHN renal
[5] = test system: BT-549 breast
[6] = test system: CAKI-1 renal
[7] = test system: CCRF-CEM leukemia
[8] = test system: COLO 205 colon
[9] = test system: DU-145 prostate
[10] = test system: EKVX NSCLC
[11] = test system: HCC-2998 colon
[12] = test system: HCT-116 colon
[13] = test system: HCT-15 colon
[14] = test system: HL-60(TB) leukemia
[15] = test system: HOP-62 NSCLC
[16] = test system: HOP-92 NSCLC
[17] = test system: HS 578T breast
[18] = test system: HT29 colon
[19] = test system: IGROV1 ovarian
[20] = test system: K-562 leukemia
[21] = test system: KM12 colon
[22] = test system: LOX IMVI melanoma
[23] = test system: M14 melanoma
[24] = test system: MALME-3M melanoma
[25] = test system: MCF7 breast
[26] = test system: MDA-MB-231 breast
[27] = test system: MDA-MB-435
[28] = test system: MOLT-4 leukemia
[29] = test system: NCI-H226 lung
[30] = test system: NCI-H23 lung
[31] = test system: NCI-H460 lung
[32] = test system: NCI-H522 lung
[33] = test system: NCI/ADR-RES ovarian
[34] = test system: OVCAR-3 ovarian
[35] = test system: OVCAR-4 ovarian
[36] = test system: OVCAR-5 ovarian
[37] = test system: OVCAR-8 ovarian
[38] = test system: PC-3 prostate
[39] = test system: RPMI-8226 leukemia
[40] = test system: RXF 393 renal
[41] = test system: SF-268 CNS
[42] = test system: SF-295 CNS
[43] = test system: SF-539 CNS
[44] = test system: SK-MEL-2 melanoma
[45] = test system: SK-MEL-28 melanoma
[46] = test system: SK-MEL-5 melanoma
[47] = test system: SK-OV-3 ovarian
[48] = test system: SN12C renal
[49] = test system: SNB-19 CNS
[50] = test system: SNB-75 CNS
[51] = test system: SW-620 colon
[52] = test system: T-47D breast
[53] = test system: TK-10 renal
[54] = test system: U251 CNS
[55] = test system: UACC-257 melanoma
[56] = test system: UACC-62 melanoma
[57] = test system: UO-31 renal

CN([O-])c1nc(N(C)[O-])nc(N2CCOCC2)n1.CN([O-])c1nc(N(C)[OH2+])nc(N2CCOCC2)n1.[Fe+3]
GI50 [1]: > 100 µM | TGI [1]: > 100 µM | GI50 [2]: 0.0197 µM | TGI [2]: > 100 µM | GI50 [3]: > 100 µM | TGI [3]: > 100 µM | GI50 [4]: > 100 µM | TGI [4]: > 100 µM | GI50 [5]: > 100 µM | TGI [5]: > 100 µM | GI50 [6]: > 100 µM | TGI [6]: > 100 µM | GI50 [7]: > 100 µM | TGI [7]: > 100 µM | GI50 [8]: > 100 µM | TGI [8]: > 100 µM | GI50 [9]: > 100 µM | TGI [9]: > 100 µM | GI50 [10]: > 100 µM | TGI [10]: > 100 µM | GI50 [11]: > 100 µM | TGI [11]: > 100 µM | GI50 [12]: 96.6 µM | TGI [12]: > 100 µM | GI50 [13]: > 100 µM | TGI [13]: > 100 µM | GI50 [14]: > 100 µM | TGI [14]: > 100 µM | GI50 [15]: 89.6 µM | TGI [15]: > 100 µM | GI50 [16]: 0.487 µM | TGI [16]: > 100 µM | GI50 [17]: > 100 µM | TGI [17]: > 100 µM | GI50 [18]: > 100 µM | TGI [18]: > 100 µM | GI50 [19]: > 100 µM | TGI [19]: > 100 µM | GI50 [20]: 48.6 µM | TGI [20]: > 100 µM | GI50 [21]: 57.1 µM | TGI [21]: > 100 µM | GI50 [22]: 15.5 µM | TGI [22]: 36 µM | GI50 [23]: 41.5 µM | TGI [23]: > 100 µM | GI50 [24]: 54.9 µM | TGI [24]: > 100 µM | GI50 [25]: > 100 µM | TGI [25]: > 100 µM | GI50 [26]: > 100 µM | TGI [26]: > 100 µM | GI50 [27]: 61.8 µM | TGI [27]: > 100 µM | GI50 [28]: > 100 µM | TGI [28]: > 100 µM | GI50 [29]: > 100 µM | TGI [29]: > 100 µM | GI50 [30]: > 100 µM | TGI [30]: > 100 µM | GI50 [31]: 18.3 µM | TGI [31]: 34.4 µM | GI50 [32]: 23.8 µM | TGI [32]: 94.7 µM | GI50 [33]: > 100 µM | TGI [33]: > 100 µM | GI50 [34]: > 100 µM | TGI [34]: > 100 µM | GI50 [35]: > 100 µM | TGI [35]: > 100 µM | GI50 [36]: > 100 µM | TGI [36]: > 100 µM | GI50 [37]: > 100 µM | TGI [37]: > 100 µM | GI50 [38]: > 100 µM | TGI [38]: > 100 µM | GI50 [39]: > 100 µM | TGI [39]: > 100 µM | GI50 [40]: 68.3 µM | TGI [40]: > 100 µM | GI50 [41]: 57.4 µM | TGI [41]: > 100 µM | GI50 [42]: 57.6 µM | TGI [42]: > 100 µM | GI50 [43]: > 100 µM | TGI [43]: > 100 µM | GI50 [44]: 81.8 µM | TGI [44]: > 100 µM | GI50 [45]: 84.8 µM | TGI [45]: > 100 µM | GI50 [46]: > 100 µM | TGI [46]: > 100 µM | GI50 [47]: > 100 µM | TGI [47]: > 100 µM | GI50 [48]: > 100 µM | TGI [48]: > 100 µM | GI50 [49]: > 100 µM | TGI [49]: > 100 µM | GI50 [50]: > 100 µM | TGI [50]: > 100 µM | GI50 [51]: > 100 µM | TGI [51]: > 100 µM | GI50 [52]: > 100 µM | TGI [52]: > 100 µM | GI50 [53]: > 100 µM | TGI [53]: > 100 µM | GI50 [54]: 27.5 µM | TGI [54]: > 100 µM | GI50 [55]: > 100 µM | TGI [55]: > 100 µM | GI50 [56]: > 100 µM | TGI [56]: > 100 µM | GI50 [57]: > 100 µM | TGI [57]: > 100 µM
